Data on 24 compounds can be found in US3932664A, “Substituted phenoxyalkyl quaternary ammonium compounds as antiarrhythemic agents” (priority 1974, dated 1976).

Structures are written as SMILES. Read-outs that look alike come from different tables or passages of the source.

For data set [1], the system named is ouabain-induced ventricular tachycardia in dogs. Put plainly: conversion of ouabain-induced ventricular tachycardia to normal sinus rhythm in anesthetized dogs. The format is in vivo, dog. The following applies: for minimal effective dose: Canis lupus familiaris, iv, read-out: Conversion Dose. The text has this: Ventricular tachycardia is produced in dogs in a method similar to the method of Lucchesi and Hardman (J. Pharmacol. Exptl. Therap., 132, 372, 1961) by the administration of ouabain. In such operations, a dog is anesthetized by the intravenous administration of pentobarbital sodium at a dosage rate of 30 milligrams per kilogram. A femoral artery is cannulated with polyethylene tubing for measurements of blood pressure. A femoral vein is similarly cannulated for administration of ouabain and administration of the test compound. Hypodermic needle electrodes are employed for recording electrocardiograms. In such operations, ouabain is administered intravenously by infusion at a constant rate via the cannulated femoral vein. The infusion rate is 35 micrograms of ouabain per kilogram of animal body weight per hour. Within 1 to 1.5 hours following the start of the infusion, a ventricular tachycardia is seen to develop.
After ventricular tachycardia is observed, a test compound is administered intravenously by administration of varying amounts of a composition comprising 50 milligrams of the test compound as a sterile solution in 10 milliliters of water containing 0.9 percent sodium chloride. Each dose is administered slowly over a period of 15 to 30 seconds. The compound is administered at an initial dosage rate of 0.25 milligram of test compound per kilogram of animal body weight. Blood pressure and electrocardiogram are observed for 5 minutes after administration. When a complete conversion from the arrhythmic condition to normal sinus rhythm is not observed within the 5 minute period, a second dose of 0.50 milligram of the test compound per kilogram is administered by a similar procedure and blood pressure and heartbeat are similarly observed for 5 minutes. When complete conversion of the ventricular tachycardia to normal sinus rhythm is not observed, the dosage is increased two-fold every five minutes until complete conversion is obtained. The animal is then observed and the duration of the period of normal cardiac rhythm produced by administration of the test compound is recorded as the duration of antiarrhythmic activity. The termination of the period of normal activity is marked by the reappearance of ventricular tachycardia or fibrillation as indicated by the electrocardiogram observations. The antiarrhythmic dosage of test compound sufficient to bring about a complete conversion of the cuabain-induced tachycardia, and the duration of the period of normal cardiac activity are set out below.
The procedure of Example 26 is repeated, employing the compound of Example 1, [ 2-(4-amino-2,6-dibromophenoxy)-ethyl]-dimethyl(2-methylallyl)ammoniumchloride, as a test compound. In these operations two groups of three dogs each are administered the test compound intravenously at anti-arrhythmic dosage rates of 1 and 2 milligrams per kilogram after ectopic ventricular rhythms have been established by continuous infusion of cuabain.

Data set [2] is described as follows: blood and heart tissue levels in mice after intravenous and oral administration. Type of data set: in vivo. The conditions noted are these: mouse; for concentration at 0.5 h: oral 6 mg/kg, thirty minutes after administration. As for the experimental part:
[2-(4-amino-2,6-dibromophenoxy)ethyl]dimethyl-(allyl)ammonium bromide is administered to mice intravenously and orally. The animals are thereafter sacrificed and blood and heart tissue analyses are carried out to ascertain the concentration of test compound present. In such operations mice intravenously administered the test compound at a rate of 6 milligrams per kilogram are found to have blood levels of 27 micrograms of test compound per milliliter 10 seconds after injection, 2.1 micrograms per milliliter 3 minutes after injection. Analysis of heart tissue indicates a concentration of 5.5 micrograms of test compound per gram of tissue 10 minutes after injection. Similar analyses are carried out with animals administered 6 milligrams of test compound per kilogram orally. Thirty minutes after oral administration, blood and heart levels of 1.1 and 5.1 micrograms, respectively, of test compound per milliliter of blood or gram of heart tissue, respectively, are found.

[3] abbreviates: dog, intravenous, dose giving complete conversion of ouabain-induced tachycardia to normal sinus rhythm.
[4] abbreviates: dog, intravenous, at conversion dose 1 mg/kg.
Where [5] appears, read: dog, intravenous, at conversion dose 2 mg/kg.
Setting [6] is: dog, intravenous, at conversion dose 0.5 mg/kg.

For `CCOC(=O)C[N+](C)(C)CCOc1c(Br)cc(N)cc1Br` [Example 2, [2-(4-amino-2,6-dibromophenoxy)ethyl]dimethyl(ethylcarboxymethyl) ammonium bromide], in data set [1] (setting [3]), the minimal effective dose was 1 mg/kg. The “Duration (period of normal cardiac rhythm)” value (“Duration” below) in data set [1] (setting [4]) stood at 2.6 min; in data set [1] (setting [5]) it was 3.5 min.

On to `C[N+](C)(CCOc1c(Br)cc(N)cc1Br)Cc1ccccc1Cl.[Cl-]` [Example 3, [2-(4-amino-2,6-dibromophenoxy)-ethyl]dimethyl(2-chlorobenzyl)ammonium chloride], for which, in data set [1] (setting [3]), the minimal effective dose amounted to 1 mg/kg. Further, the “Duration” value in data set [1] (setting [4]) is 12.5 min.

On to `C#CC[N+](C)(C)CCOc1c(Br)cc(N)cc1Br.[Br-]` [Example 4, [2-(4-amino-2,6-dibromo-phenoxy)ethyl]dimethyl(2-propynyl)ammonium bromide], for which the minimal effective dose in data set [1] (setting [3]) came to 0.5 mg/kg. Besides, in data set [1] (setting [6]), the “Duration” value is 24 min.

For the compound `CC(=O)C[N+](C)(C)CCOc1c(Br)cc(N)cc1Br.[Cl-]` [Example 5, [2-(4-amino-2,6-dibromophenoxy)ethyl]dimethyl(acetonyl)ammonium chloride], the minimal effective dose in data set [1] (setting [3]) turned out to be 1 mg/kg. For the same compound, the “Duration” value in data set [1] (setting [4]) was determined as 11 min.

Consider `C=CC[N+](C)(C)CCOc1c(Br)cc(N)cc1Br.[Br-]` [Example 6, [2-(4-amino-2,6-dibromophenoxy)ethyl]dimethyl(allyl)ammonium bromide], for which the minimal effective dose in data set [1] (setting [3]) worked out at 1 mg/kg. Further, the “Duration” value in data set [1] (setting [4]) came to 6 min. Further, the concentration at 10 s in data set [2] (blood, intravenous 6 mg/kg, 10 seconds after injection, read-out: blood level) was found to be 27000 ng/mL. Besides, the concentration at 0.05 h in data set [2] (blood, intravenous 6 mg/kg, 3 minutes after injection, read-out: blood level) is 2100 ng/mL. Also, the concentration at 0.5 h was determined as 1100 ng/mL in data set [2] (blood, read-out: blood level) and 5100 ng/g in data set [2] (heart, read-out: heart level). The concentration at 10 min in data set [2] (heart, intravenous 6 mg/kg, 10 minutes after injection) came out at 5500 ng/g.

As to `C[N+](C)(CCO)CCOc1c(Br)cc(N)cc1Br` [Example 7], the minimal effective dose in data set [1] (setting [3]) amounted to 1 mg/kg. For the same compound, in data set [1] (setting [4]), the “Duration” value came to 25 min.

Regarding `C[N+](C)(CCOc1c(Br)cc(N)cc1Br)CC(=O)c1ccc(Cl)c(Cl)c1` [Example 8], in data set [1] (setting [3]), the minimal effective dose was found to be 16 mg/kg. In addition, the “Duration” value in data set [1] (dog, intravenous, at conversion dose 16 mg/kg) is 10 min.

For the compound `C[N+](C)(CCOc1c(Br)cc(N)cc1Br)CCc1ccccc1` [Example 9], the minimal effective dose in data set [1] (setting [3]) is 2 mg/kg. Further, the “Duration” value in data set [1] (setting [5]) amounted to 3.5 min.

Consider `C[N+](C)(CC=CCl)CCOc1c(Br)cc(N)cc1Br` [Example 10], for which, in data set [1] (setting [3]), the minimal effective dose is 1 mg/kg. In addition, in data set [1] (setting [4]), the “Duration” value stood at 3 min.

With `C[N+](C)(CCOc1c(Br)cc(N)cc1Br)Cc1ccccc1` [Example 11], in data set [1] (setting [3]), the minimal effective dose turned out to be 1 mg/kg. In data set [1] (setting [4]), the “Duration” value was 8.5 min.

`C[N+](C)(CCOc1c(Br)cc(N)cc1Br)Cc1ccc(Cl)cc1` [Example 12]: in data set [1] (setting [3]), the minimal effective dose worked out at 1 mg/kg. Besides, the “Duration” value in data set [1] (setting [4]) was 9.5 min.

As to `C[N+](C)(CCOc1c(Br)cc(N)cc1Br)Cc1ccc(Cl)cc1Cl` [Example 13], in data set [1] (setting [3]), the minimal effective dose is 0.5 mg/kg. In data set [1] (setting [6]), the “Duration” value was determined as 4 min.

`C[N+](C)(CCOc1c(Br)cc(N)cc1Br)Cc1ccc(Cl)c(Cl)c1` [Example 14]: in data set [1] (setting [3]), the minimal effective dose worked out at 2 mg/kg. Also, the “Duration” value in data set [1] (setting [5]) worked out at 14 min.

With `C=C(C)C[N+](C)(C)CCOc1c(Cl)cc(N)cc1Cl.[Cl-]` [Example 15, [2-(4-amino-2,6-dichlorophenoxy)ethyl]dimethyl(2-methylallyl)-ammonium chloride], the minimal effective dose in data set [1] (setting [3]) is 0.5 mg/kg. Besides, in data set [1] (setting [6]), the “Duration” value was 4.5 min.

Consider `C=CC[N+](CC)(CC)CCOc1c(Br)cc(N)cc1Br.[Br-]` [Example 16, [2-(4-amino-2,6-dibromophenoxy)ethyl]diethyl(allyl)ammonium bromide], for which the minimal effective dose in data set [1] (setting [3]) is 2 mg/kg. The “Duration” value in data set [1] (setting [5]) is 6.5 min.

Turning to `C=CC[N+](C)(C)CCCOc1c(Br)cc(N)cc1Br.[Br-]` [Example 17, [3-(4-amino-2,6-dibromophenoxy)propyl]dimethyl(allyl)ammonium bromide], the minimal effective dose in data set [1] (setting [3]) was 1 mg/kg. Besides, the “Duration” value in data set [1] (setting [4]) is 6 min.

With `C[N+](C)(CC#N)CCOc1c(Br)cc(N)cc1Br.O=S(=O)([O-])c1ccccc1` [Example 18, [2-(4-amino-2,6-dibromophenoxy)ethyl]dimethyl(2-nitriloethyl)-ammonium benzenesulfonate], in data set [1], the minimal effective dose was determined as 1 mg/kg. Further, the “Duration” value in data set [1] (setting [4]) came to 4 min.

As for `C=CC[N+](C)(C)CCOc1c(Br)cc(N)cc1Br.CS(=O)(=O)[O-]` [Example 19, [2-(4-amino-2,6-dibromophenoxy)-ethyl]dimethyl(allyl)ammonium methanesulfonate], the minimal effective dose in data set [1] (setting [3]) was 1 mg/kg. Also, the entries for the “Duration” value in data set [1] (setting [4]) and in data set [1] (setting [5]) were 17.5 min and 39.0 min, respectively.

As for `Nc1cc(Br)c(OCC[N+]23CCC(CC2)CC3)c(Br)c1` [Example 20, [2-(4-amino-2,6-dibromophenoxy)ethyl] quinuclidinium bromide], in data set [1], the minimal effective dose worked out at 0.5 mg/kg. The “Duration” value in data set [1] (setting [6]) amounted to 1 min.

As to `Br.C=CC[N+]1(CCOc2c(Br)cc(N)cc2Br)CCCC1.[Br-]` [Example 21, 1-[2-(4-amino-2,6dibromophenoxy)ethyl]-1-allyl pyrrolidinium bromide hydrobromide], the minimal effective dose in data set [1] (setting [3]) came to 2 mg/kg. For the same compound, in data set [1] (setting [5]), the “Duration” value came out at 1.5 min.

With `Br.C=CC[N+]1(CCOc2c(Br)cc(N)cc2Br)CCCCC1.[Br-]` [Example 22, 1-[2-(4-amino-2,6-dibromophenoxy)ethyl]-1-allyl piperidinium bromide hydrobromide], the minimal effective dose in data set [1] (setting [3]) was 1 mg/kg. In addition, the “Duration” value in data set [1] (setting [4]) amounted to 6.5 min.

With `C=CC[N+]1(CCOc2c(Br)cc(N)cc2Br)CCCCCC1` [Example 23, [2-(4-amino-2,6-dibromophenoxy)ethyl]-1-allylhexahydroazepinium bromide], the minimal effective dose in data set [1] (setting [3]) turned out to be 0.5 mg/kg. Besides, the results for the “Duration” value in data set [1] (setting [6]) and in data set [1] (setting [4]) were 3.3 min and 7.5 min, respectively.

For the compound `Cc1ccc[n+](CCOc2c(Br)cc(N)cc2Br)c1.[Br-]` [Example 24, 1-[2-(4-amino-2,6-dibromo-phenoxy)ethyl]-3-picolinium bromide], in data set [1] (setting [3]), the minimal effective dose came out at 0.5 mg/kg. Also, in data set [1] (setting [6]), the “Duration” value came out at 38 min.

Take `C=CC[N+](C)(C)CCCCOc1c(Br)cc(N)cc1Br.[Br-]` [Example 25, [4-(4-amino-2,6-dibromophenoxy)-butyl]dimethyl(allyl) ammonium bromide]: the minimal effective dose in data set [1] (setting [3]) was 2 mg/kg. The “Duration” value in data set [1] (setting [5]) was determined as 26 min.
